Like-named read-outs stand apart in the source and are kept apart here.
Tests used:
10 cancer cell lines = format: cell-based; settings: for single agent activity across the cancer cell lines tested (in words): 10 cancer cell lines
Procedure: (§1) Briefly, cell lines were preserved in liquid nitrogen and thawed and expanded in growth media containing full serum. As the cells reached expected doubling times, the screening assay began. Cells were seeded in growth media and equilibrated via centrifugation. The cell cultures were placed in incubators and then underwent treatment. Assay plates were collected and ATP levels were measured. Assay plates were incubated with combinations for seventy two (72) or ninety six (96) hours in simultaneous and sequential dosing schedules.
(§2) Cell lines that have been preserved in liquid nitrogen were thawed and expanded in growth media containing full serum. Once cells have reached expected doubling times, screening began. Cells were seeded in growth media in black 384-well tissue culture treated plates at cell densities as listed in Appendix 1 incorporated into and part of this specification. Cells were equilibrated in assay plates via centrifugation and placed in incubators (attached to the Dosing Modules) at 37° C. for 24 hours before treatment. […] These Tzero (T0) plates were read using ultra-sensitive luminescence on Envision plate readers. Assay plates were incubated with compounds for 72 and were then analyzed using ATPLite™.
(§3) Chalice Analyzer allows two ways of visualizing single agent dose response curves. The Logistics Curve fit modeling in Analyzer uses sigmoidal modeling of the data points. In most contexts, the Logistics Curve fit will accurately model the dose response curve. All subsequent analyses for the single agent and combination activities of SRA737 contained within the Examples use the Linear Interpolation Curve fit.
(§4) A GI 100% represents complete growth inhibition (cytostasis) and in this case cells treated with compound for 72 or 96 hours would have the same endpoint reading as T0 control cells. A GI of 200% represents complete death (cytotoxicity) of all cells in the culture well and in this case the T reading at 72 or 96 hours will be lower than the T0 control (values near or at zero). These GI calculations were used in all single agent and combination data analysis for the combination screen.
(§5) Single agent activity of SRA737 and four PARP inhibitors in each of 10 cancer cell lines comprising breast, ovarian, prostate sarcoma and head and neck cancer cells was assessed (FIGS. 3-9). The 10 cancer cell lines examined were: A673, B-474, CAL-27, DU-145, MDA-MB-231, OVCAR-3, OVCAR-5, PC-3, HT-29 and SK-BR-3. The cell lines were screened with a 72 hour treatment schedule. Cell viability was measured by detection of ATP metabolism using an ATP monitoring luminescence detection assay (ATPLite™) GI50, IC50, Maximum Response Observed (Max Response) were calculated (FIG. 5).

A673 cells = assay: Single agent assessment, ATPLite cell viability, 72 hour treatment; format: cell-based, human
Procedure: as §1, §2, §3, §4, §5

BT-474 cells = assay: as above; format: cell-based, human
Procedure: as §1, §2, §3, §4, §5

CAL-27 cells = assay: as above; format: cell-based, human
Procedure: as §1, §2, §3, §4, §5

DU145 cells = assay: as above; format: cell-based, human
Procedure: as §1, §2, §3, §4, §5

HT-29 cells = assay: as above; format: cell-based, human
Procedure: as §1, §2, §3, §4, §5

MDA-MB-231 cells = assay: as above; format: cell-based, human
Procedure: as §1, §2, §3, §4, §5

OVCAR-3 cells = assay: as above; format: cell-based, human
Procedure: as §1, §2, §3, §4, §5

OVCAR-5 cells = assay: as above; format: cell-based, human
Procedure: as §1, §2, §3, §4, §5

PC-3 cells = assay: as above; format: cell-based, human
Procedure: as §1, §2, §3, §4, §5

SK-BR-3 cells = assay: as above; format: cell-based, human
Procedure: as §1, §2, §3, §4, §5

NC(=O)c1cccc2cn(-c3ccc([C@@H]4CCCNC4)cc3)nc12 [Niraparib]
single agent activity across the cancer cell lines tested (in words) (10 cancer cell lines; 72 hour treatment): activity in most of the cancer cell lines tested

N#Cc1cnc(Nc2cc(NCC3CNCCO3)c(C(F)(F)F)cn2)cn1 (centres unmarked) [SRA737, 5-[[4-[[morpholin-2-yl]methylamino]-5-(trifluoromethyl)-2-pyridyl]amino]pyrazine-2-carbonitrile]
sensitivity of the cell line to the single agent (A673 cells): intermediate sensitivity | sensitivity of the cell line to the single agent (BT-474 cells): least sensitivity | sensitivity of the cell line to the single agent (CAL-27 cells): least sensitivity | sensitivity of the cell line to the single agent (DU145 cells): intermediate sensitivity | sensitivity of the cell line to the single agent (HT-29 cells): intermediate sensitivity | sensitivity of the cell line to the single agent (MDA-MB-231 cells): least sensitivity | sensitivity of the cell line to the single agent (OVCAR-3 cells): intermediate sensitivity | sensitivity of the cell line to the single agent (OVCAR-5 cells): highest sensitivity | sensitivity of the cell line to the single agent (PC-3 cells): least sensitivity | sensitivity of the cell line to the single agent (SK-BR-3 cells): highest sensitivity | number of cancer cell lines in which single agent activity was demonstrated (10 cancer cell lines; of the 10 cancer cell lines, 72 hour treatment): 8 | kind of single agent effect (cytotoxic / cytostatic) (10 cancer cell lines; the remaining six responsive cell lines): cytostatic | kind of single agent effect (cytotoxic / cytostatic) (10 cancer cell lines; the two most responsive cell lines): modestly cytotoxic

Cn1ncnc1[C@H]1c2n[nH]c(=O)c3cc(F)cc(c23)N[C@@H]1c1ccc(F)cc1 [BMN 673, Talazoparib]
single agent activity across the cancer cell lines tested (in words) (10 cancer cell lines; 72 hour treatment): activity in most of the cancer cell lines tested

O=C(c1cc(Cc2n[nH]c(=O)c3ccccc23)ccc1F)N1CCN(C(=O)C2CC2)CC1 [Olaparib]
single agent activity across the cancer cell lines tested (in words) (10 cancer cell lines; 72 hour treatment): activity in most of the cancer cell lines tested

CNCc1ccc(-c2[nH]c3cc(F)cc4c3c2CCNC4=O)cc1 [Rucaparib]
single agent activity across the cancer cell lines tested (in words) (10 cancer cell lines; 72 hour treatment): activity in most of the cancer cell lines tested

Reference: patent US11596637B2, “CHK1 (SRA737)/PARPi combination methods of inhibiting tumor growth” (SIERRA ONCOLOGY, INC., priority 2017, dated 2023)
